Results published in ChEMBL document CHEMBL6134813, “Arctigenin derivative TZOA restores mitochondrial homeostasis to combat rhabdovirus infections” (Eur J Med Chem, 2025).
Calls of active or inactive are those of the source. The calls are words filed in the database; no cut-off is given here.

Key:
[1] = tested on: Infectious hematopoietic necrosis virus; assay: Antiviral activity against IHNV infected in EPC cells (unknown origin) assessed as dense monolayer arrangement in host cells at 25 uM pretreated virus with compound for 4 hrs followed by compound-treated virus infection in EPC cells measured after 72 hrs by microscopic analysis; assay type: functional, organism-based
[2] = tested on: Infectious hematopoietic necrosis virus; assay: Antiviral activity against IHNV infected in EPC cells (unknown origin) assessed as uniform sized nuclei at 25 uM measured after 72 hrs by fluorescence microscopy; assay type: functional, organism-based
[3] = tested on: Infectious hematopoietic necrosis virus; assay: Antiviral activity against IHNV infected in EPC cells (unknown origin) assessed as inhibition of viral G gene expression at 25 uM measured after 72 hrs by RT-qPCR analysis relative to control; assay type: functional
[4] = tested on: Infectious hematopoietic necrosis virus; assay: Antiviral activity against IHNV infected in EPC cells (unknown origin) assessed as formation of tubular structures by cristae by TEM analysis; assay type: functional, organism-based
[5] = tested on: Infectious hematopoietic necrosis virus; assay: Antiviral activity against IHNV infected in juvenile rainbow trout assessed as increase in ISG15 gene expression in kidney administered intraperitoneally measured after 2 days by RT-qPCR analysis; assay type: functional, organism-based; details: route ip, time 2.0 day
[6] = tested on: Infectious hematopoietic necrosis virus; assay: Antiviral activity against IHNV infected in juvenile rainbow trout assessed as increase in ISG15 gene expression in spleen administered intraperitoneally measured after 2 days by RT-qPCR analysis; assay type: functional, organism-based; details: route ip, time 2.0 day
[7] = Cytotoxicity against EPC cells (unknown origin) assessed as cell viability at 64 uM measured after 72 hrs by CCK8 assay; assay type: toxicity, cell-based
[8] = tested on: Infectious hematopoietic necrosis virus; assay: Antiviral activity against IHNV infected in EPC cells (unknown origin) assessed as reduction in virus-induced mitochondrial-lysosomal contact at 25 uM incubated for 72 hrs by Mito-Tracker/Lyso-Tracker dye based analysis; assay type: functional, organism-based
[9] = tested on: Infectious hematopoietic necrosis virus; assay: Antiviral activity against IHNV infected in EPC cells (unknown origin) assessed as inhibition of viral M gene expression measured after 72 hrs by RT-qPCR analysis; assay type: functional, organism-based; details: dose 0.1-100 µM
[10] = tested on: Infectious hematopoietic necrosis virus; assay: Antiviral activity against IHNV infected in EPC cells (unknown origin) assessed as mitochondrial length by TEM analysis (reference value: 0.2 to 0.7 um); assay type: functional
[11] = tested on: Infectious hematopoietic necrosis virus; assay: Antiviral activity against IHNV infected in juvenile rainbow trout assessed as increase in Mx1 gene expression in kidney administered intraperitoneally measured after 2 days by RT-qPCR analysis; assay type: functional, organism-based; details: route ip, time 2.0 day
[12] = tested on: Infectious hematopoietic necrosis virus; assay: Antiviral activity against IHNV infected in EPC cells (unknown origin) assessed as reduction in viral G protein expression at 25 uM pretreated virus with compound for 2 hrs followed by compound-treated virus infection in EPC cells measured after 72 hrs by RT-qPCR analysis relative to control; assay type: functional; parameters: scale not given: the % may be the effect or the level left
[13] = tested on: Infectious hematopoietic necrosis virus; assay: Antiviral activity against IHNV infected in EPC cells (unknown origin) assessed as reduction in viral load for internalization at 25 uM incubated for 1 hr at 4 degreeC followed by 2 hrs of incubation at 25 degreeC by RT-qPCR analysis relative to control; assay type: functional; parameters: scale not given: the % may be the effect or the level left; details: time 3 hrs
[14] = tested on: Infectious hematopoietic necrosis virus; assay: Antiviral activity against IHNV infected in EPC cells (unknown origin) assessed as increase in virus-reduced average number of mitochondrial networks within cells at 25 uM incubated for 72 hrs by Mito-Tracker dye based analysis; assay type: functional, organism-based
[15] = tested on: Infectious hematopoietic necrosis virus; assay: Antiviral activity against IHNV infected in EPC cells (unknown origin) assessed as inhibition of viral N gene expression measured after 72 hrs by RT-qPCR analysis; assay type: functional, organism-based; details: dose 0.1-100 µM
[16] = tested on: Infectious hematopoietic necrosis virus; assay: Antiviral activity against IHNV infected in EPC cells (unknown origin) assessed as area of mitochondria by TEM analysis (reference value: 0.05 to 0.2 um2); assay type: functional
[17] = Cytotoxicity against EPC cells (unknown origin) assessed as cell viability up to 25 uM measured after 72 hrs by CCK8 assay; assay type: toxicity, cell-based
[18] = tested on: Infectious hematopoietic necrosis virus; assay: Antiviral activity against IHNV infected in EPC cells (unknown origin) assessed as reduction in cytopathic effect at 25 uM pretreated virus with compound for 1 to 2 hrs followed by compound-treated virus infection in EPC cells measured after 72 hrs by RT-qPCR analysis; assay type: functional, organism-based; details: time 1-2 hrs
[19] = tested on: Infectious hematopoietic necrosis virus; assay: Antiviral activity against IHNV infected in EPC cells (unknown origin) assessed as increase in cell proliferation at 4 uM measured after 72 hrs by CCK8 assay relative to control; assay type: functional
[20] = tested on: Infectious hematopoietic necrosis virus; assay: Antiviral activity against IHNV infected in EPC cells (unknown origin) assessed as viral titer measured per 0.1 ml incubated for 96 hrs by Reed-Muench method (reference value: 1 10^7.77TCID50); assay type: functional
[21] = tested on: Infectious hematopoietic necrosis virus; assay: Antiviral activity against IHNV infected in juvenile rainbow trout assessed as decrease in viral G gene expression in spleen of recipient fishes on horizontal transmission between virus-infected donor fishes and non-infected recipient fishes at 25 uM immersed together in compound for 48 hrs by qPCR analysis; assay type: functional, organism-based
[22] = tested on: Infectious hematopoietic necrosis virus; assay: Antiviral activity against IHNV infected in EPC cells (unknown origin) assessed as unchanged morphology in host cells at 25 uM pretreated virus with compound for 4 hrs followed by compound-treated virus infection in EPC cells measured after 72 hrs by microscopic analysis; assay type: functional, organism-based
[23] = tested on: Infectious hematopoietic necrosis virus; assay: Antiviral activity against IHNV infected in EPC cells (unknown origin) assessed as inhibition of viral G gene expression measured after 72 hrs by RT-qPCR analysis; assay type: functional, organism-based; details: dose 0.1-100 µM
[24] = tested on: Infectious hematopoietic necrosis virus; assay: Antiviral activity against IHNV infected in EPC cells (unknown origin) assessed as minimal number of apoptotic bodies within observed area at 25 uM measured after 72 hrs by fluorescence microscopy; assay type: functional, organism-based
[25] = tested on: Infectious hematopoietic necrosis virus; assay: Antiviral activity against IHNV infected in juvenile rainbow trout assessed as decrease in erythrocytes in kidney administered intraperitoneally measured after 2 days by H and E staining based analysis; assay type: functional, organism-based; details: route ip, time 2.0 day
[26] = tested on: Infectious hematopoietic necrosis virus; assay: Antiviral activity against IHNV infected in juvenile rainbow trout assessed as increase in IFN-1 gene expression in spleen administered intraperitoneally measured after 2 days by RT-qPCR analysis; assay type: functional, organism-based; details: route ip, time 2.0 day
[27] = tested on: Infectious hematopoietic necrosis virus; assay: Antiviral activity against IHNV infected in EPC cells (unknown origin) assessed as elongated rod-shaped mitochondria with double layered membrane by TEM analysis; assay type: functional, organism-based
[28] = tested on: Infectious hematopoietic necrosis virus; assay: Antiviral activity against IHNV infected in juvenile rainbow trout assessed as decrease in viral G gene expression in kidney administered intraperitoneally measured after 1 to 4 days by RT-qPCR analysis; assay type: functional, organism-based; details: route ip, time 1-4 day
[29] = tested on: Infectious hematopoietic necrosis virus; assay: Antiviral activity against IHNV infected in EPC cells (unknown origin) assessed as inhibition of viral N gene expression at 25 uM measured after 72 hrs by RT-qPCR analysis relative to control; assay type: functional
[30] = tested on: Infectious hematopoietic necrosis virus; assay: Antiviral activity against IHNV infected in EPC cells (unknown origin) assessed as mtDNA intact with mitochondria at 25 uM incubated for 72 hrs by TOMM20 dye based analysis; assay type: functional, organism-based

COc1ccc(C[C@H]2COC(=O)[C@@H]2Cc2ccc(OCCCCCCCCn3cncn3)c(OC)c2)cc1OC
Activity [1]: Active | Activity [2]: Active | inhibition at 25 µM [3]: > 90% | Activity [4]: Active; The Cristae Formed Tubular Structures, With The Inter-Membrane Space Forming The Mitochondrial Outer Chamber And Connecting Cristae Inner Spaces | Activity [5]: Active | Activity [6]: Active | Activity [7]: Toxic | Activity [8]: Active | inhibition [9]: Dose-dependent-effect | Activity [10]: 0.8 um | Activity [11]: Active | Activity [12]: 24% | Activity [13]: 46% | Activity [14]: Active | inhibition [15]: Dose-dependent-effect | Activity [16]: 0.2 um2 | Activity [17]: Non-toxic | Activity [18]: Active | Activity [19]: >50% | Activity [20]: 1 10^5.48TCID50 | Activity [21]: Active | Activity [22]: Active | inhibition [23]: Dose-dependent-effect | Activity [24]: Active | Activity [25]: Active | Activity [26]: Active | Activity [27]: Active | Activity [28]: Active | inhibition at 25 µM [29]: > 90% | Activity [30]: Active
